# Measured values published in PubChem BioAssay (NCI).
#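 96-well plates; 48 h exposure; 5 concentrations. Endpoints by linear interpolation between flanking doses. Not reached: highest tested concentration assigned. TGI: total growth inhibition.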
# Legend:
# Assay in all cases: inhibition of tumour cell growth, NCI panel, 48 h
# 786-0 renal = test system: 786-0 renal
# A498 renal = test system: A498 renal
# A549 NSCLC = test system: A549 NSCLC
# ACHN renal = test system: ACHN renal
# BT-549 breast = test system: BT-549 breast
# CAKI-1 renal = test system: CAKI-1 renal
# CCRF-CEM leukemia = test system: CCRF-CEM leukemia
# COLO 205 colon = test system: COLO 205 colon
# DU-145 prostate = test system: DU-145 prostate
# EKVX NSCLC = test system: EKVX NSCLC
# HCC-2998 colon = test system: HCC-2998 colon
# HCT-116 colon = test system: HCT-116 colon
# HCT-15 colon = test system: HCT-15 colon
# HL-60(TB) leukemia = test system: HL-60(TB) leukemia
# HOP-62 NSCLC = test system: HOP-62 NSCLC
# HOP-92 NSCLC = test system: HOP-92 NSCLC
# HS 578T breast = test system: HS 578T breast
# HT29 colon = test system: HT29 colon
# IGROV1 ovarian = test system: IGROV1 ovarian
# K-562 leukemia = test system: K-562 leukemia
# KM12 colon = test system: KM12 colon
# LOX IMVI melanoma = test system: LOX IMVI melanoma
# M14 melanoma = test system: M14 melanoma
# MCF7 breast = test system: MCF7 breast
# MDA-MB-231 breast = test system: MDA-MB-231 breast
# MDA-MB-435 = test system: MDA-MB-435
# MDA-N = test system: MDA-N
# MOLT-4 leukemia = test system: MOLT-4 leukemia
# NCI-H226 lung = test system: NCI-H226 lung
# NCI-H23 lung = test system: NCI-H23 lung
# NCI-H460 lung = test system: NCI-H460 lung
# NCI-H522 lung = test system: NCI-H522 lung
# NCI/ADR-RES ovarian = test system: NCI/ADR-RES ovarian
# OVCAR-3 ovarian = test system: OVCAR-3 ovarian
# OVCAR-4 ovarian = test system: OVCAR-4 ovarian
# OVCAR-5 ovarian = test system: OVCAR-5 ovarian
# OVCAR-8 ovarian = test system: OVCAR-8 ovarian
# PC-3 prostate = test system: PC-3 prostate
# RPMI-8226 leukemia = test system: RPMI-8226 leukemia
# SF-268 CNS = test system: SF-268 CNS
# SF-295 CNS = test system: SF-295 CNS
# SF-539 CNS = test system: SF-539 CNS
# SK-MEL-2 melanoma = test system: SK-MEL-2 melanoma
# SK-MEL-28 melanoma = test system: SK-MEL-28 melanoma
# SK-MEL-5 melanoma = test system: SK-MEL-5 melanoma
# SK-OV-3 ovarian = test system: SK-OV-3 ovarian
# SN12C renal = test system: SN12C renal
# SNB-19 CNS = test system: SNB-19 CNS
# SNB-75 CNS = test system: SNB-75 CNS
# SR leukemia = test system: SR leukemia
# SW-620 colon = test system: SW-620 colon
# T-47D breast = test system: T-47D breast
# TK-10 renal = test system: TK-10 renal
# U251 CNS = test system: U251 CNS
# UACC-257 melanoma = test system: UACC-257 melanoma
# UACC-62 melanoma = test system: UACC-62 melanoma
# UO-31 renal = test system: UO-31 renal
# MALME-3M melanoma = test system: MALME-3M melanoma
compound,measurement,setting,value
N#CC1(C#N)C(c2ccccc2)C=CC(c2ccc([N+](=O)[O-])cc2)C1(C#N)C#N (stereo not drawn),TGI,786-0 renal,7.71 µM
same,TGI,A498 renal,32.1 µM
same,TGI,A549 NSCLC,32 µM
same,TGI,ACHN renal,9.54 µM
same,TGI,BT-549 breast,24.3 µM
same,TGI,CAKI-1 renal,13.1 µM
same,TGI,CCRF-CEM leukemia,> 100 µM
same,TGI,COLO 205 colon,3.13 µM
same,TGI,DU-145 prostate,27.3 µM
same,TGI,EKVX NSCLC,28.6 µM
same,TGI,HCC-2998 colon,42.9 µM
same,TGI,HCT-116 colon,13.7 µM
same,TGI,HCT-15 colon,16.5 µM
same,TGI,HL-60(TB) leukemia,0.574 µM
same,TGI,HOP-62 NSCLC,31.7 µM
same,TGI,HOP-92 NSCLC,9.88 µM
same,TGI,HS 578T breast,> 59.9 µM
same,TGI,HT29 colon,> 38.5 µM
same,TGI,IGROV1 ovarian,27.8 µM
same,TGI,K-562 leukemia,> 100 µM
same,TGI,KM12 colon,52.5 µM
same,TGI,LOX IMVI melanoma,6.87 µM
same,TGI,M14 melanoma,15.7 µM
same,TGI,MCF7 breast,21.1 µM
same,TGI,MDA-MB-231 breast,28.1 µM
same,TGI,MDA-MB-435,16.3 µM
same,TGI,MDA-N,17 µM
same,TGI,MOLT-4 leukemia,7.1 µM
same,TGI,NCI-H226 lung,> 57.5 µM
same,TGI,NCI-H23 lung,27.4 µM
same,TGI,NCI-H460 lung,> 100 µM
same,TGI,NCI-H522 lung,9.48 µM
same,TGI,NCI/ADR-RES ovarian,> 74.4 µM
same,TGI,OVCAR-3 ovarian,23.2 µM
same,TGI,OVCAR-4 ovarian,30.5 µM
same,TGI,OVCAR-5 ovarian,31.9 µM
same,TGI,OVCAR-8 ovarian,27.5 µM
same,TGI,PC-3 prostate,25 µM
same,TGI,RPMI-8226 leukemia,> 25.6 µM
same,TGI,SF-268 CNS,51.6 µM
same,TGI,SF-295 CNS,33.7 µM
same,TGI,SF-539 CNS,8.38 µM
same,TGI,SK-MEL-2 melanoma,31.6 µM
same,TGI,SK-MEL-28 melanoma,35.5 µM
same,TGI,SK-MEL-5 melanoma,22.9 µM
same,TGI,SK-OV-3 ovarian,34.5 µM
same,TGI,SN12C renal,12.2 µM
same,TGI,SNB-19 CNS,34.1 µM
same,TGI,SNB-75 CNS,47.7 µM
same,TGI,SR leukemia,> 23.6 µM
same,TGI,SW-620 colon,> 32.4 µM
same,TGI,T-47D breast,7.27 µM
same,TGI,TK-10 renal,13.1 µM
same,TGI,U251 CNS,53 µM
same,TGI,UACC-257 melanoma,30.2 µM
same,TGI,UACC-62 melanoma,24.8 µM
same,TGI,UO-31 renal,26.8 µM
O=Nc1c(NO)ccc2nn(-c3ccccc3)nc12,TGI,786-0 renal,> 100 µM
same,TGI,A549 NSCLC,> 100 µM
same,TGI,ACHN renal,47.7 µM
same,TGI,BT-549 breast,> 100 µM
same,TGI,CAKI-1 renal,71.3 µM
same,TGI,CCRF-CEM leukemia,> 100 µM
same,TGI,COLO 205 colon,> 100 µM
same,TGI,DU-145 prostate,> 100 µM
same,TGI,EKVX NSCLC,> 100 µM
same,TGI,HCC-2998 colon,85.5 µM
same,TGI,HCT-116 colon,23.1 µM
same,TGI,HCT-15 colon,> 100 µM
same,TGI,HL-60(TB) leukemia,> 100 µM
same,TGI,HOP-62 NSCLC,> 100 µM
same,TGI,HOP-92 NSCLC,> 100 µM
same,TGI,HS 578T breast,> 100 µM
same,TGI,HT29 colon,> 100 µM
same,TGI,IGROV1 ovarian,49.4 µM
same,TGI,K-562 leukemia,> 100 µM
same,TGI,KM12 colon,> 100 µM
same,TGI,LOX IMVI melanoma,> 100 µM
same,TGI,M14 melanoma,> 100 µM
same,TGI,MALME-3M melanoma,> 100 µM
same,TGI,MCF7 breast,19.6 µM
same,TGI,MDA-MB-231 breast,> 100 µM
same,TGI,MDA-MB-435,38.3 µM
same,TGI,MDA-N,> 100 µM
same,TGI,MOLT-4 leukemia,74.5 µM
same,TGI,NCI-H226 lung,6.64 µM
same,TGI,NCI-H460 lung,> 100 µM
same,TGI,NCI-H522 lung,13.2 µM
same,TGI,NCI/ADR-RES ovarian,> 100 µM
same,TGI,OVCAR-3 ovarian,> 100 µM
same,TGI,OVCAR-4 ovarian,> 100 µM
same,TGI,OVCAR-5 ovarian,37.6 µM
same,TGI,OVCAR-8 ovarian,> 100 µM
same,TGI,PC-3 prostate,> 100 µM
same,TGI,RPMI-8226 leukemia,> 100 µM
same,TGI,SF-268 CNS,> 100 µM
same,TGI,SF-295 CNS,> 100 µM
same,TGI,SF-539 CNS,18.4 µM
same,TGI,SK-MEL-2 melanoma,> 100 µM
same,TGI,SK-MEL-28 melanoma,43.3 µM
same,TGI,SK-MEL-5 melanoma,10.8 µM
same,TGI,SK-OV-3 ovarian,> 100 µM
same,TGI,SN12C renal,40 µM
same,TGI,SNB-19 CNS,> 100 µM
same,TGI,SNB-75 CNS,> 100 µM
same,TGI,SR leukemia,> 100 µM
same,TGI,SW-620 colon,> 100 µM
same,TGI,T-47D breast,> 100 µM
same,TGI,TK-10 renal,> 100 µM
same,TGI,U251 CNS,> 100 µM
same,TGI,UACC-257 melanoma,11.7 µM
same,TGI,UACC-62 melanoma,9.21 µM
same,TGI,UO-31 renal,11.8 µM
